Test results as given in ChEMBL document CHEMBL1157187, “Chemical synthesis of 2beta-amino-5alpha-androstane-3alpha,17beta-diol N-derivatives and their antiproliferative effect on HL-60 human leukemia cells” (Bioorg Med Chem, 2008).

Tests used:
HL-60 [1] = assay: Growth inhibition of human HL60 cells at 1 uM after 3 days; type: functional; settings: HL-60, 72 h
HL-60 [2] = assay: Growth inhibition of human HL60 cells after 3 days; type: functional, cell-based; settings: HL-60, 72 h
HL-60 [3] = assay: Growth inhibition of human HL60 cells at 10 uM after 3 days; type: functional; settings: HL-60, 72 h
HL-60 [4] = assay: Increase in CD11b/CD14 double expression in human HL60 cells; type: functional
HL-60 [5] = assay: Increase in CD11b expression in human HL60 cells; type: functional

Structure (SMILES) | inhibition at 1 µM (HL-60 [1]) [%] | IC50 (HL-60 [2]) [µM] | inhibition at 10 µM (HL-60 [3]) [%] | Activity (HL-60 [4]) [%] | Activity (HL-60 [5]) [%]
C[C@]12C[C@H](NCCC(c3ccccc3)c3ccccc3)[C@@H](O)C[C@@H]1CC[C@@H]1[C@@H]2CC[C@]2(C)[C@@H](O)CC[C@@H]12 | 12.9 | 3.1 | 95.2 | 39 | 58
COc1cccc2c1C(=O)c1c(O)c3c(c(O)c1C2=O)C[C@@](O)(C(=O)CO)C[C@@H]3O[C@H]1C[C@H](N)[C@H](O)[C@H](C)O1 [DOXORUBICIN] | 91.8 | 0.1 | 94.6 | – | –
CCCCCCCCCN1CCN([C@H]2C[C@@]3(C)[C@@H](CC[C@@H]4[C@@H]3CC[C@]3(C)[C@@H](O)CC[C@@H]43)C[C@@H]2O)CC1 | 9.1 | 4.2 | 99.8 | 32 | 55
CCCCCCCCN[C@H]1C[C@@]2(C)[C@@H](CC[C@@H]3[C@@H]2CC[C@]2(C)[C@@H](O)CC[C@@H]32)C[C@@H]1O | 0 | 6.4 | 99.2 | 10 | 29
C[C@]12C[C@H](N3CCNCC3)[C@@H](O)C[C@@H]1CC[C@@H]1[C@@H]2CC[C@]2(C)[C@@H](O)CC[C@@H]12 | 6.9 | – | 5.9 | – | –
CC(C)CCN[C@H]1C[C@@]2(C)[C@@H](CC[C@@H]3[C@@H]2CC[C@]2(C)[C@@H](O)CC[C@@H]32)C[C@@H]1O | 0 | – | 3 | – | –
C[C@]12C[C@H](NC3CCCC3)[C@@H](O)C[C@@H]1CC[C@@H]1[C@@H]2CC[C@]2(C)[C@@H](O)CC[C@@H]12 | 0 | – | 0 | – | –
C[C@]12C[C@H](C3NCCc4ccccc43)[C@@H](O)C[C@@H]1CC[C@@H]1[C@@H]2CC[C@]2(C)[C@@H](O)CC[C@@H]12 (stereo partly drawn) | 3.4 | – | 29.6 | – | –
C[C@]12C[C@H](N3CCCC3)[C@@H](O)C[C@@H]1CC[C@@H]1[C@@H]2CC[C@]2(C)[C@@H](O)CC[C@@H]12 | 0 | – | 9.9 | – | –
CCCCCCCCCCCN(CCCCCCCCCCC)[C@H]1C[C@@]2(C)[C@@H](CC[C@@H]3[C@@H]2CC[C@]2(C)[C@@H](O)CC[C@@H]32)C[C@@H]1O | 11.7 | – | 7 | – | –
C[C@]12C[C@H](NC3CCCCCC3)[C@@H](O)C[C@@H]1CC[C@@H]1[C@@H]2CC[C@]2(C)[C@@H](O)CC[C@@H]12 | 0 | – | 0 | – | –
C[C@]12C[C@H](NC3CCCCC3)[C@@H](O)C[C@@H]1CC[C@@H]1[C@@H]2CC[C@]2(C)[C@@H](O)CC[C@@H]12 | 0 | – | 0 | – | –
CCCCCCCCCN(CCCCCCCCC)[C@H]1C[C@@]2(C)[C@@H](CC[C@@H]3[C@@H]2CC[C@]2(C)[C@@H](O)CC[C@@H]32)C[C@@H]1O | 9.8 | – | 41.5 | – | –
C[C@]12C[C@H](n3cccn3)[C@@H](O)C[C@@H]1CC[C@@H]1[C@@H]2CC[C@]2(C)[C@@H](O)CC[C@@H]12 | 8.4 | – | 12.8 | – | –
C[C@]12C[C@H](N3CCC(Cc4ccccc4)CC3)[C@@H](O)C[C@@H]1CC[C@@H]1[C@@H]2CC[C@]2(C)[C@@H](O)CC[C@@H]12 | 9.9 | – | 57.9 | – | –
C[C@]12C[C@H](N3CCN(c4ccc([N+](=O)[O-])cc4)CC3)[C@@H](O)C[C@@H]1CC[C@@H]1[C@@H]2CC[C@]2(C)[C@@H](O)CC[C@@H]12 | 12.5 | – | 92.2 | – | –
CCCN[C@H]1C[C@@]2(C)[C@@H](CC[C@@H]3[C@@H]2CC[C@]2(C)[C@@H](O)CC[C@@H]32)C[C@@H]1O | 0 | – | 0.4 | – | –
CCCCN1CCN([C@H]2C[C@@]3(C)[C@@H](CC[C@@H]4[C@@H]3CC[C@]3(C)[C@@H](O)CC[C@@H]43)C[C@@H]2O)CC1 | 0 | – | 7.6 | – | –
C[C@]12C[C@H](N3CCCCC3)[C@@H](O)C[C@@H]1CC[C@@H]1[C@@H]2CC[C@]2(C)[C@@H](O)CC[C@@H]12 | 0 | – | 1.5 | – | –
